On the set-up of series [1]: method as in earlier work. As to conditions: ondansetron 32 mg IV; cited from earlier work.
Series [2] can be described thus: published QT results for ondansetron. The series is classed as in vivo. As to conditions: 24 mg ondansetron, inferred by authors from published 32 mg data.
Description: The majority of patients (18/26) received ondansetron 24 mg IV.
The subject of another series is hERG-related current. As to conditions: at 10 μg/mL; ref data on file, Celgene Corporation; cited from earlier work.
Series [3] concerns patients with advanced malignancy. Kind of series: centrally read ECG analysis (QTcF, PR, QRS, heart rate) in patients with advanced malignancy. The method, then:
All patients provided written informed consent.
PK/PD modeling is not reported as it was not possible to account for the possible effects of coadministered antiemetics and the absence of closely collected ECGs during times of PK sampling when rapid changes in the plasma concentrations occurred. For the central tendency and categorical analyses, the mean of the three replicates was used. All paper ECGs were analyzed by a core central ECG laboratory (Duke Clinical Research Institute [DCRI], Durham, NC) in a fully blinded fashion. A DCRI technician marked the fiducial points on each ECG tracing and, using a digital caliper, measured the QT, PR, RR, and QRS intervals. All ECGs were over read by a DCRI cardiologist for verification of the interval measurements.

In the next series the test system is patients. Particulars: early clinical development, across several studies; cited from earlier work.
A short description of the next series: clinical. As to conditions: human, plasma, intravenous.

Here are results for two compounds from paper PMC4559029 (Cancer Medicine, 2015).

Some results are limits rather than exact numbers.

On to `Cc1nccn1CC1CCc2c(c3ccccc3n2C)C1=O` (stereo not shown) [ondansetron], for which, in series [1], the “increase in QTc at 4 h” value is given as “≈ 6 msec” and the “initial increase in QTc” value is “≈ 20 msec”. In addition, in series [2], the “QTc effect at 4 h” value is < 5 ms.
One may read the AUC(0-inf) as the area under the concentration-time curve extrapolated to infinity. Low values mean less exposure, high ones more exposure. In general, Cmax refers to the peak of the concentration-time curve. As a reminder, the half-life is how long it takes for the measured level to halve. Read a low half-life as fast loss. Turning to `C/C=C1\NC(=O)[C@H]2CSSCC/C=C/[C@H](CC(=O)N[C@H](C(C)C)C(=O)N2)OC(=O)[C@H](C(C)C)NC1=O` [romidepsin], the “inhibition of hERG-related current” value in the series on hERG-related current is given as 37%. For the same compound, in series [3] (14 mg/m^2 4-h infusion, at 0.25 h postinitiation), the “upper 90% CI of maximal mean QTcF increase from preantiemetic baseline” value came out at 14.5 ms. For the same compound, in series [3] (human, in vivo), the “increase in heart rate” value is reported as “≈ 20 bpm” and the “patients with absolute QTcF value >450 msec” value is recorded as “No patient”. Moreover, the “patients with sudden death” value in the series on patients is recorded as “six”. Also, in “clinical” (8 mg/m^2), the AUC(0-inf) was 1350 ng·h/mL, the Cmax came to 1110 ng/mL and the half-life was 4.82 h. Moreover, in “clinical” (10 mg/m^2), the highest level (Cmax) was 1480 ng/mL and the half-life was 4.94 h. Besides, in “clinical” (12 mg/m^2), the AUC(0-inf) came out at 3010 ng·h/mL, the peak level (Cmax) was 2090 ng/mL and the half-life was 4.32 h. In the series “clinical” (14 mg/m^2), this compound gave an AUC(0-inf) of 3070 ng·h/mL, a Cmax of 780 ng/mL and a half-life of 3.7 h.
